In US20250353873A1, “COMPOUNDS AND METHODS FOR MODULATING APOE EXPRESSION” (Ionis Pharmaceuticals, Inc., priority 2024, published 2025):
pIC50: −log10 of the molar value. Strand notation (5' to 3'): a small letter for the sugar, then the base; units joined by * are phosphorothioate-linked, units joined directly phosphodiester-linked; [ ] holds rarer units or linkages, { } end groups; capitals alone tell only the bases. [ms] = mesyl phosphoramidate linkage; e = 2'-O-(2-methoxyethyl) (MOE); k = constrained ethyl (cEt); [5mC] = 5-methylcytosine; d = 2'-deoxy (DNA)

Columns and labels:
human APOE RNA [1] = test: Potency (dose response, ED50) in APOE C57BL/6NTac-Apoeem7250 knock-in mice, 4 weeks (Example 14); format: in vivo; details: for ED 50 (μg) Cortex / ED 50 (μg) Spinal Cord: single ICV bolus, GraphPad Prism 10
Description: Modified oligonucleotides described above were tested in the APOE C57BL/6NTac-Apoeem7250 knock-in mouse model described above.
APOE C57BL/6NTac-Apoeem7250 knock-in mice were divided into groups of 3-4 mice each. A group of 3-4 mice received a single ICV bolus with PBS as a negative control.
Four weeks post treatment, mice were sacrificed, and RNA was extracted from cortical brain tissue and spinal cord for quantitative real-time RT-PCR analysis of RNA expression of […] using human primer probe set RTS3073 (described herein above). APOE RNA levels were normalized to mouse Ppia. Mouse Ppia was amplified using primer probe set m_cyclo24 (described herein above). Results are presented as percent human APOE RNA relative to the amount of APOE RNA in PBS treated animals, (% control). N.C. indicates values that were not calculated. Each experiment is identified in separate tables below.
The half maximal effective dose (ED50) of each modified oligonucleotide was calculated using GraphPad Prism 10 software (GraphPad Software, San Diego, CA).

human APOE RNA [2] = test: Dose-dependent reduction of human APOE RNA in HepG2 cells, electroporation, 20,000 cells per well, average of GAPDH- and PPIA-normalized results (Example 4, Table 12); format: cell-based; details: HepG2, 20,000 cells per well; for pIC50: approximately 24 hours
Description: HepG2 cells plated at a density of 20,000 cells per well were treated by electroporation with various concentrations of modified oligonucleotide as specified in the tables below. […] APOE RNA levels were measured using the human primer probe set RTS3073 (described herein above). APOE RNA levels were normalized to human GAPDH, and human PPIA. Human GAPDH was amplified using human primer probe set RTS104 (described herein above). Human PPIA was amplified using human primer probe set mk_cycloA_2nd (described herein above) The average of the GAPDH-normalized results and the PPIA-normalized results are presented in the table below as percent APOE RNA, relative to the amount of APOE RNA in untreated control cells (% UTC). The half maximal inhibitory concentration (IC50) of each modified oligonucleotide was calculated in GraphPad Prism 10 (GraphPad Software, San Diego, CA) and is also presented in the table below.

human APOE RNA [3] = test: Activity in APOE C57BL/6NTac-Apoeem7250 knock-in mice, single ICV bolus, 16 weeks (Example 12); format: in vivo; details: single ICV bolus 300 μg, 16 weeks post treatment, normalized to mouse Ppia
Outline: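 A single 300 μg intracerebroventricular dose was given, with PBS-treated mice as reference; cortical and spinal cord tissue was taken 16 weeks later. RT-qPCR quantified human APOE RNA, Ppia-normalized, expressed relative to PBS animals (% control).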

Row | Substance | APOE RNA (% control) Cortex (human APOE RNA [1]; ICV dose 10 μg) | APOE RNA (% control) Cortex (human APOE RNA [1]; ICV dose 30 μg) | APOE RNA (% control) Cortex (human APOE RNA [1]; ICV dose 100 μg) | APOE RNA (% control) Cortex (human APOE RNA [1]; ICV dose 300 μg) | APOE RNA (% control) Cortex (human APOE RNA [1]; ICV dose 700 μg) | ED 50 (μg) Cortex (human APOE RNA [1]) | APOE RNA (% control) Spinal Cord (human APOE RNA [1]; ICV dose 10 μg) | APOE RNA (% UTC) (human APOE RNA [2]; 5 nM) | APOE RNA (% UTC) (human APOE RNA [2]; 13 nM) | APOE RNA (% UTC) (human APOE RNA [2]; 33 nM) | APOE RNA (% UTC) (human APOE RNA [2]; 82 nM) | APOE RNA (% UTC) (human APOE RNA [2]; 205 nM) | APOE RNA (% UTC) (human APOE RNA [2]; 512 nM) | APOE RNA (% UTC) (human APOE RNA [2]; 1,280 nM) | APOE RNA (% UTC) (human APOE RNA [2]; 3,200 nM) | APOE RNA (% UTC) (human APOE RNA [2]; 8,000 nM) | APOE RNA (% UTC) (human APOE RNA [2]; 20,000 nM) | pIC50 (human APOE RNA [2]) | APOE RNA (% control) Cortex (human APOE RNA [3]) | APOE RNA (% control) Spinal Cord (human APOE RNA [3]) | further results
1 | 1778130: modified oligonucleotide complementary to human APOE RNA (eA*e[5mC]eTeTeG*kG*dT*dG[ms]dA[ms]dA*dT*d[5mC]*dT*dT*dT*dA[ms]kTkT*eA*eA; antisense) [compound 1778130] | 123 % control | 100 % control | 69 % control | 74 % control | 37 % control | 502.4 µg | 88 % control | 99 % UTC | 100 % UTC | 85 % UTC | 72 % UTC | 52 % UTC | 45 % UTC | 20 % UTC | 12 % UTC | 18 % UTC | 9 % UTC | 6.51 | 34 % control | 15 % control | APOE RNA (% control) Spinal Cord (human APOE RNA [1]; ICV dose 30 μg): 35 % control; APOE RNA (% control) Spinal Cord (human APOE RNA [1]; ICV dose 100 μg): 27 % control; APOE RNA (% control) Spinal Cord (human APOE RNA [1]; ICV dose 300 μg): 22 % control; APOE RNA (% control) Spinal Cord (human APOE RNA [1]; ICV dose 700 μg): 32 % control; ED 50 (μg) Spinal Cord (human APOE RNA [1]): 35.9 µg
2 | 1785617: modified oligonucleotide complementary to human APOE RNA (k[5mC]*dT[ms]dT[ms]kG*dG[ms]kT*dG[ms]dA[ms]dA[ms]dT[ms]d[5mC]*dT*dT*dT*dA*dT*kT*kA*dA[ms]kA; antisense) [compound 1785617] |  |  |  |  |  |  |  | 95 % UTC | 93 % UTC | 82 % UTC | 68 % UTC | 55 % UTC | 32 % UTC | 23 % UTC | 16 % UTC | 20 % UTC | 6 % UTC | 6.59 | 37 % control | 28 % control | 
3 | 1778111: modified oligonucleotide complementary to human APOE RNA (eA*e[5mC]eTeTeG*kG*dT*dG[ms]dA[ms]dA*dT*d[5mC]*dT*dT*dT*dA[ms]eTeT*eA*eA; antisense) [compound 1778111] |  |  |  |  |  |  |  | 106 % UTC | 88 % UTC | 91 % UTC | 77 % UTC | 62 % UTC | 43 % UTC | 32 % UTC | 21 % UTC | 14 % UTC | 8 % UTC | 6.36 | 49 % control | 27 % control | 
4 | 1785599: modified oligonucleotide complementary to human APOE RNA (k[5mC]*kT*kT*dG[ms]dG[ms]dT[ms]dG[ms]dA[ms]dA[ms]dT[ms]d[5mC]*dT*dT*dT*dA*dT*kT*kA*dA[ms]kA; antisense) [compound 1785599] |  |  |  |  |  |  |  | 100 % UTC | 106 % UTC | 93 % UTC | 81 % UTC | 71 % UTC | 43 % UTC | 32 % UTC | 18 % UTC | 10 % UTC | 15 % UTC | 6.29 | 35 % control | 54 % control | 
5 | 1778128: modified oligonucleotide complementary to human APOE RNA (eA*e[5mC]eTeTkGkG*dT*dG[ms]dA[ms]dA*dT*d[5mC]*dT*dT*dT*dA[ms]kTeT*eA*eA; antisense) [compound 1778128] |  |  |  |  |  |  |  | 96 % UTC | 95 % UTC | 83 % UTC | 67 % UTC | 60 % UTC | 37 % UTC | 24 % UTC | 25 % UTC | 22 % UTC | 14 % UTC | 6.46 | 34 % control | 22 % control | 
6 | 1693105: 6-10-4 MOE gapmer CTTGGTGAATCTTTATTAAA, linkages sosssszzzssssszssss (e[5mC]*eTeT*eG*eG*eT*dG[ms]dA[ms]dA[ms]dT*d[5mC]*dT*dT*dT*dA[ms]dT*eT*eA*eA*eA) [compound 1693105] | 100 % control | 85 % control | 77 % control | 59 % control | 48 % control | 573.3 µg | 71 % control |  |  |  |  |  |  |  |  |  |  |  | 65 % control | 44 % control | APOE RNA (% control) Spinal Cord (human APOE RNA [1]; ICV dose 30 μg): 71 % control; APOE RNA (% control) Spinal Cord (human APOE RNA [1]; ICV dose 100 μg): 47 % control; APOE RNA (% control) Spinal Cord (human APOE RNA [1]; ICV dose 300 μg): 49 % control; APOE RNA (% control) Spinal Cord (human APOE RNA [1]; ICV dose 700 μg): 61 % control; ED 50 (μg) Spinal Cord (human APOE RNA [1]): 892.8 µg
